Read-outs that look alike come from different tables or passages of the source.
What was measured:
Phosphodiesterase PDE1 [1] = assay: Phosphodiesterase PDE1 enzyme assay; assay type: biochemical, bovine; conditions: reference compound tested concurrently, batch 70431; read-out: Concurrent IC50
Phosphodiesterase PDE2 [2] = biological target: T1, Phosphodiesterase PDE2 (Homo sapiens, UniProt O00408); assay: Phosphodiesterase PDE2 enzyme assay; assay type: biochemical; conditions: reference compound tested concurrently, batch 70678; read-out: Concurrent IC50
Phosphodiesterase PDE3 [3] = biological target: T2, Phosphodiesterase PDE3 (Homo sapiens, UniProt Q14432); assay: Phosphodiesterase PDE3 enzyme assay; assay type: biochemical; conditions: reference compound tested concurrently, batch 70679; read-out: Concurrent IC50
Phosphodiesterase PDE4 [4] = assay: Phosphodiesterase PDE4 enzyme assay; assay type: biochemical, human; conditions: reference compound tested concurrently, batch 70680; read-out: Concurrent IC50
Phosphodiesterase PDE5 [5] = biological target: T3, Phosphodiesterase PDE5 (Homo sapiens, UniProt O76074); assay: Phosphodiesterase PDE5 enzyme assay; assay type: biochemical; conditions: reference compound tested concurrently, batch 70681; read-out: Concurrent IC50
Phosphodiesterase PDE1 [6] = conditions: reference compound, historical value; cited from earlier work
Phosphodiesterase PDE2 [7] = biological target: T1, Phosphodiesterase PDE2; conditions: reference compound, historical value; cited from earlier work
Phosphodiesterase PDE3 [8] = biological target: T2, Phosphodiesterase PDE3; conditions: reference compound, historical value; cited from earlier work
Phosphodiesterase PDE4 [9] = conditions: reference compound, historical value; cited from earlier work
Phosphodiesterase PDE5 [10] = biological target: T3, Phosphodiesterase PDE5; conditions: reference compound, historical value; cited from earlier work
Phosphodiesterase PDE6 [11] = biological target: T4, Phosphodiesterase PDE6 (Bos taurus, UniProt P11541+P23439); assay: Phosphodiesterase PDE6 enzyme assay; assay type: biochemical, bovine; conditions: reference compound tested concurrently, batch 70682; read-out: Concurrent IC50
T4 sequence (P11541 1-859): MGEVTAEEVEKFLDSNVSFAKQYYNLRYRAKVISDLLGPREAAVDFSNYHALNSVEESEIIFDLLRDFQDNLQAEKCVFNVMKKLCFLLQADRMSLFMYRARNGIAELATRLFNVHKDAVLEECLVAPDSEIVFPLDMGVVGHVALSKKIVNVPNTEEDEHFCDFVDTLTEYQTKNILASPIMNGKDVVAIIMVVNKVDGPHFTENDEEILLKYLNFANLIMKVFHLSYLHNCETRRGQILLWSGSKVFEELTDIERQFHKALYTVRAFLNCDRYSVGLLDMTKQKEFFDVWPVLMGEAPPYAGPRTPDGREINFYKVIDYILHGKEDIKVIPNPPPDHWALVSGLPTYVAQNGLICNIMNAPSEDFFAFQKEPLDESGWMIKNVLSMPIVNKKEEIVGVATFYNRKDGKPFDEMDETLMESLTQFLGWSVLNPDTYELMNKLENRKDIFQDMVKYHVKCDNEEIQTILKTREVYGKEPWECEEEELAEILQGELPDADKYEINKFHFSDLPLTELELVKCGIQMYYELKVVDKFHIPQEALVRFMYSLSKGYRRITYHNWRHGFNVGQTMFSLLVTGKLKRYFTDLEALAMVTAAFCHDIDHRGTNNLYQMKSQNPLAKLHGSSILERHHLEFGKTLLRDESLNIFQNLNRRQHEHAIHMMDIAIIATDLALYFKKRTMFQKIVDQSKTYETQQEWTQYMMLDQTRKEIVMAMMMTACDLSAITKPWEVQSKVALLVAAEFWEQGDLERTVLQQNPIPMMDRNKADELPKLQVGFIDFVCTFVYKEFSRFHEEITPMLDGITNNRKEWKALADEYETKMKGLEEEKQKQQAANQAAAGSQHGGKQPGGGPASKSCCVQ
T4 sequence (P23439 1-853): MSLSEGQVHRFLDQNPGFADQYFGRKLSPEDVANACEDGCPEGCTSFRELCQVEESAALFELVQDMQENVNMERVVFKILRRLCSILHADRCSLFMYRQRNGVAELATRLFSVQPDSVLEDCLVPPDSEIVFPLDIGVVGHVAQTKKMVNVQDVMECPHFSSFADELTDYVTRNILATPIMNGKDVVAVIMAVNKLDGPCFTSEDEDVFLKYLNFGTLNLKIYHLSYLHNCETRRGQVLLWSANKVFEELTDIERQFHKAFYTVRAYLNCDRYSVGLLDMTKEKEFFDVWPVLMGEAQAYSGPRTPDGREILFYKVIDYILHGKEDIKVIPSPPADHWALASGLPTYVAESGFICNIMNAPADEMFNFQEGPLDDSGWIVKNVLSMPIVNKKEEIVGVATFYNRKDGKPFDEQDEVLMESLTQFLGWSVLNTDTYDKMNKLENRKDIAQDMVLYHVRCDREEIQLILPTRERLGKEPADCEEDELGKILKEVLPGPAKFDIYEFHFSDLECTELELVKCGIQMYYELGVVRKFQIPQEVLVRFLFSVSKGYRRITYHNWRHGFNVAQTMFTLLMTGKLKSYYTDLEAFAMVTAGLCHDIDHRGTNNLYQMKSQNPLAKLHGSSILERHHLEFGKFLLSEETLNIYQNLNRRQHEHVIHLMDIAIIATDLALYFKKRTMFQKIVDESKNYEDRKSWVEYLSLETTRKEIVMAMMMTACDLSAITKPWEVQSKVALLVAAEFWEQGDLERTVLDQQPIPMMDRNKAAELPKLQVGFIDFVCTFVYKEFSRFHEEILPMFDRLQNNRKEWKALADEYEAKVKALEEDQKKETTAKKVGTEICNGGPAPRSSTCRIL
Method: The test material (TNPJCon) was tested using an Enzyme assays that involve PDE enzymes from both bovine and human origin known as PDE1, PDE2, PDE3, PDE4, PDE6. All of the enzyme assays were run on a 1% concentration of TNPJCon. Please note that the IC50 was not determined.

Phosphodiesterase PDE6 [12] = biological target: T4, Phosphodiesterase PDE6; conditions: reference compound, historical value; cited from earlier work

T1 sequence (O00408 whole entry): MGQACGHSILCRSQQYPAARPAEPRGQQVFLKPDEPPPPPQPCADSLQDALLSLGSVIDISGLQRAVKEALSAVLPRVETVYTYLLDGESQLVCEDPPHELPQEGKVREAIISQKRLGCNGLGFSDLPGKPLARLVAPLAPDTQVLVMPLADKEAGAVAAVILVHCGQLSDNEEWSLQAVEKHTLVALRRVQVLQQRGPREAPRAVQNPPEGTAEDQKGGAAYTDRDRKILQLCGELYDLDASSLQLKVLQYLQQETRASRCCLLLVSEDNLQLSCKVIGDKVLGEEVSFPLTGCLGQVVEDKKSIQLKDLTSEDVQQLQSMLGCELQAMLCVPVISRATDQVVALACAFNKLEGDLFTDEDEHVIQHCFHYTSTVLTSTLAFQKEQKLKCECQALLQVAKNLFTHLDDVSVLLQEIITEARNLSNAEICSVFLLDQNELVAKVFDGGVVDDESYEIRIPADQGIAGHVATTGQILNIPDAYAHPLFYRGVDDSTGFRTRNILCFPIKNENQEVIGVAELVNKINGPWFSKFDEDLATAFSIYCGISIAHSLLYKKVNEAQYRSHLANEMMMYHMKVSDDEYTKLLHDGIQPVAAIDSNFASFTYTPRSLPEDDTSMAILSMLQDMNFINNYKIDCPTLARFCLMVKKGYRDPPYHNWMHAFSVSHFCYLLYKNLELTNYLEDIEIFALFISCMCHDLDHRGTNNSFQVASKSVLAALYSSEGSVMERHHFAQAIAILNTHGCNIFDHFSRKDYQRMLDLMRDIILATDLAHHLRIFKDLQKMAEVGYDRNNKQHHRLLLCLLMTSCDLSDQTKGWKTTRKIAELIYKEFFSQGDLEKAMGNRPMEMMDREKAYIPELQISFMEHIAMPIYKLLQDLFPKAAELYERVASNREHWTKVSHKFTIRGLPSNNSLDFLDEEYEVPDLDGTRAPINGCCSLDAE
T2 sequence (Q14432 whole entry): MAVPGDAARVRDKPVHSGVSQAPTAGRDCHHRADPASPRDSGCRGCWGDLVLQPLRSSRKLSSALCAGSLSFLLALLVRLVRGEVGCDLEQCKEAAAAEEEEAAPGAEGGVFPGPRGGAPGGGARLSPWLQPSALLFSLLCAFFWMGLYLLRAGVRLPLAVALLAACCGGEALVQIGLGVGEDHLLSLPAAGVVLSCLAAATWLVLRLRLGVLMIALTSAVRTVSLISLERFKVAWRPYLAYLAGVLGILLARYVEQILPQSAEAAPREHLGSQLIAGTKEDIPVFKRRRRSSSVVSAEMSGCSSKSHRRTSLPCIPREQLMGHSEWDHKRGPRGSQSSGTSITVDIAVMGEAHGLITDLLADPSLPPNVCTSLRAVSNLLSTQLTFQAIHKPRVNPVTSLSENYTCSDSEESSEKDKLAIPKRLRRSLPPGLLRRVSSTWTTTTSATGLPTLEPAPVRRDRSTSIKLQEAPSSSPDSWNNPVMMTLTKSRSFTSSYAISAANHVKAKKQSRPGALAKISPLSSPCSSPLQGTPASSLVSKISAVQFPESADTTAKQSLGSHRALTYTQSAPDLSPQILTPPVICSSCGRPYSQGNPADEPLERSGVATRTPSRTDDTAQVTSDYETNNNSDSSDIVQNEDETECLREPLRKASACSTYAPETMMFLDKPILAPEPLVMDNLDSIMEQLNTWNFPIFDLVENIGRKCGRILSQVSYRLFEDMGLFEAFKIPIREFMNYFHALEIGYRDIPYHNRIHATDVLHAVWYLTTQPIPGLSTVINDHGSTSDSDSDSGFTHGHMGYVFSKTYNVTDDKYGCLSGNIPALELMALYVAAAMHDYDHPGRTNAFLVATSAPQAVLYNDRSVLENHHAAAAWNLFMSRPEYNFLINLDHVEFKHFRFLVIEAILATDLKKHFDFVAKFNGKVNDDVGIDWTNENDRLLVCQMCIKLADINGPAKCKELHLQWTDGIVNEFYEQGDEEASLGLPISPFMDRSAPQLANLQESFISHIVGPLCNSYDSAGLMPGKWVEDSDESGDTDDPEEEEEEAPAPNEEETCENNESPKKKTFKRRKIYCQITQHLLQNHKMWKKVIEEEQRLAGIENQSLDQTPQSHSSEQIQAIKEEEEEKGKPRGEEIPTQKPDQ

Compound | IC50 (Phosphodiesterase PDE1 [1]) | IC50 (Phosphodiesterase PDE2 [2]) | IC50 (Phosphodiesterase PDE3 [3]) | IC50 (Phosphodiesterase PDE4 [4]) | IC50 (Phosphodiesterase PDE5 [5]) | IC50 (Phosphodiesterase PDE1 [6]) | IC50 (Phosphodiesterase PDE2 [7]) | IC50 (Phosphodiesterase PDE3 [8]) | IC50 (Phosphodiesterase PDE4 [9]) | IC50 (Phosphodiesterase PDE5 [10]) | IC50 (Phosphodiesterase PDE6 [11]) | IC50 (Phosphodiesterase PDE6 [12])
CC(C)Cn1c(=O)n(C)c(=O)c2[nH]cnc21 [IBMX] | 3.76 µM | 81 µM | 20.8 µM | 30.8 µM | 65.4 µM | 1100 nM | 30 µM | 4.6 µM | 6.5 µM | 63 µM |  | 
CCCOc1ccccc1-c1nc2nn[nH]c2c(=O)[nH]1 [Zaprinast] |  |  |  |  |  |  |  |  |  |  | 281 nM | 220 nM

From patent US20070248701A1, “METHODS AND FORMULATIONS FOR INHIBITING NATURALLY OCCURRING PHOSPHODIESTERASE” (priority 2003, published 2007)
